Laboratory results: paper PMC8400343, “Synthesis and Evaluation of the Antidepressant-like Properties of HBK-10, a Novel 2-Methoxyphenylpiperazine Derivative Targeting the 5-HT1A and D2 Receptors” (Pharmaceuticals, 2021)
Where a name gives a salt, the structure may show the parent alone. Read-outs that look alike come from different tables or passages of the source. Marks after values point to notes of the source that are not given here.

What was measured:
[1] = test system: mice; assay: Forced swim test in naive mice; type: in vivo, mouse; conditions: alone
Procedure: Adult male Albino-Swiss mice (CD-1, 8 weeks old, 18–21g: Jagiellonian University Medical College, Krakow, Poland) were used in all experiments. Unless stated otherwise, the animals were kept in groups of 10 mice in standard cages (37 cm × 21 cm × 15 cm) at a room temperature (22 ± 2 °C), on a 12 h light/dark cycle (lights on 7:00) with ad libitum access to food and water. Mice were used only once in each test. Behavioral experiments were performed between 8 am and 4 pm and evaluated by a trained observer blind to the treatments. Mice were handled for 1 week before starting the experimental procedures. Animals were randomly allocated to the treatment using a computer-generated sequence, and researchers making measurements on the animals or analyzing the results were blind to the allocation. Moreover, experimental groups were distributed across multiple cages, and the location of the mouse cages in the room was changed following each day.
HBK-10, WAY-100635 (Sigma, Darmstadt, Germany), p-chlorophenylalanine (pCPA; Sigma, Darmstadt, Germany), fluoxetine (Sigma, Darmstadt, Germany), reboxetine (Sigma, Darmstadt, Germany) and bupropion (Sigma, Darmstadt, Germany), were suspended in 1% Tween, and administered ip at a volume of 10 mL/kg 30 min before each behavioral test. The control groups received saline ip 30 min prior to testing. The doses of fluoxetine, reboxetine and bupropion as well as WAY-100635 and pCPA were based on our previous studies with 2-methoxyphenylpiperazine derivatives.
(§1) The experiment was performed on mice according to the method described by Porsolt et al. and as previously described. Mice were placed individually in glass cylinders (height 25 cm, diameter 10 cm) filled with water at 24 ± 1 °C to a depth of 10 cm and left there for 6 min. Following a 2 min habituation period, total time spent immobile was recorded during the next 4 min. The animal was considered as immobile when it remained floating passively in the water, making only small movements to keep its head above the water. The experiments were video-recorded and scored using elevenmaze.com software by a trained observer blind to the treatments.
To assess the involvement of a serotonergic system in the antidepressant-like activity of tested compounds in the forced swim test, the mice were pretreated with pCPA (tryptophan hydroxylase inhibitor) according to the method previously described. […]. Twenty-four hours after the last pCPA administration, we injected mice with 1% Tween ip or tested compound. We performed the forced swim test 30 min after the administration.
The putative involvement of 5-HT1A receptors in the antidepressant-like effect of tested compound was studied using WAY-100635 (a selective 5-HT1A receptor antagonist). WAY-100635 at a dose of 0.1 mg/kg was administered sc 15 min prior to the injection of HBK-10. After 30 min the forced swim test was performed. The behaviorally ineffective dose of WAY-100635 used in the experiments was based on our previous experiments.

[2] = test system: serotonin level; design: method as in PMID 9044239; conditions: 3-day treatment with pCPA; cited from earlier work
[3] = MLMs, cited from earlier work; for % Remaining after 30 min: protein concentration 0.5
[4] = target: α1-adrenoceptor; design: method as in PMID 10073136; conditions: cited from earlier work
[5] = target: 5-HT2A; design: method as in PMID 10073136; conditions: cited from earlier work
[6] = target: 5-HT1A; design: method as in PMID 10073136; conditions: cited from earlier work
[7] = test system: mice; conditions: i.p.; cited from earlier work
[8] = target: voltage-sensitive calcium channels (Cav); design: method as in PMID 10073136; conditions: read-out: Ki Cav [3H]-nitrendipine; cited from earlier work
[9] = test system: mice; conditions: i.p.; cited from earlier work; remark: listed apart in the source
[10] = test system: corticosterone-treated mice; assay: Locomotor activity in corticosterone-treated mice; type: in vivo, mouse; conditions: 15 mg/kg ip chronic, 4 min
Procedure: The locomotor activity of mice was measured as previously described. We used photoresistor actometers (Ugo Basile, Italy) connected to a counter for the recording of light-beam interruptions. Mice were placed individually in cages for 30 min, and the number of crossings of the light beams was recorded as the locomotor activity for 4 min.
(§2) Mice were injected with corticosterone (sc, 20 mg/kg) at random times during the light phase for 21 days. The dose and route of administration of corticosterone were based on our previous study. Control mice received saline containing 0.1% dimethyl sulfoxide (DMSO) and 0.1% Tween (sc). For the next 21 days, 30 min before the corticosterone injection, mice were injected with saline, HBK-10 (0.625 or 1.25 mg/kg), or fluoxetine (15 mg/kg) (ip). Twenty-four hours after the last injection, animals were tested in the forced swim test and locomotor activity test (Figure 8).

[11] = test system: corticosterone-treated mice; assay: Forced swim test in corticosterone-induced mouse model of depression; type: in vivo; conditions: fluoxetine 15 mg/kg ip, chronic (3 weeks)
Procedure: as §1, §2

N[C@@H](Cc1ccc(Cl)cc1)C(=O)O (racemic) [pCPA, p-chlorophenylalanine]
Effect on immobility in the forced swim test ([1]; pCPA 200 mg/kg ip once daily for three days): had no effect on the immobility | Reduction of serotonin level in midbrain [2]: 24% | Reduction of serotonin level in the cortical regions [2]: around 30%

O=C1CCc2ccc(OCCCCN3CCN(c4cccc(Cl)c4Cl)CC3)cc2N1 [Aripiprazole]
t1/2 ([3]; protein concentration 1.0): 217 ^b min

O=C1CC2(CCCC2)CC(=O)N1CCCCN1CCN(c2ncccn2)CC1 [Buspirone]
% Remaining after 30 min [3]: 0.29 ^a % | % Remaining after 30 min ([3]; listed as buspirone): lower than 1%

COc1ccccc1N1CCN(CCCOc2c(C)cccc2C)CC1 [Compd. I, 1-[3-(2,6-dimethylphenoxy)propyl]-4-(2-methoxyphenyl)piperazine hydrochloride]
Ki [4]: 2.1 nM | Ki [5]: 192 nM | Ki [6]: 4.9 nM

CC[C@@H](CO)NCCOc1c(C)cccc1C [Compd. II, (S)-{2-[(2-(2,6-dimethylphenoxy)ethyl]amino}butan-1-ol hydrochloride]
Rotarod test TD50 [7]: 34.45 mg/kg | Ki [8]: 18000 nM | MES ED50 [9]: 7.57 mg/kg

CNCCC(Oc1ccc(C(F)(F)F)cc1)c1ccccc1 (stereo not drawn) [Fluoxetine, reference compound]
Number of Crossings ± SEM [10]: 462.5 ± 41.81 | Decrease of immobility in the forced swim test in corticosterone-treated mice [11]: 32%

COc1ccccc1N1CCN(CCN(C(=O)C2CCCCC2)c2ccccn2)CC1 [WAY-100635, reference compound]
Effect on immobility in the forced swim test ([1]; WAY-100635 0.1 mg/kg sc): had no effect on the immobility
